Measurements from publication PMC10126264, “Synergistic effect and antibiofilm activity of the antimicrobial peptide K11 with conventional antibiotics against multidrug-resistant and extensively drug-resistant Klebsiella pneumoniae” (Frontiers in Cellular and Infection Microbiology, 2023).
≈ marks a conversion by molar mass, not a printed value. Like-named read-outs stand apart in the source and are kept apart here. Residues, ends and D or L forms follow the SMILES beside them.

Tests used:
[1] = tested on: MDR/XDR K. pneumoniae clinical isolates; assay: microbe, parasite or virus in culture; settings: for MIC: broth microdilution in CAMHB, 20-24 h at 37°C; for MBC: wells with no visible growth plated on MHA, 37°C, kills at least 99.9% of inoculum
Method: (§1) The ability of K11 to inhibit bacterial growth was determined by the broth microdilution method ([Clinical and Laboratory Standards Institute, 2018]). Briefly, a series of 2-fold dilutions of K11 were prepared from 1,024 to 2 µg/mL in cation-adjusted Mueller-Hinton broth (CAMHB), Then 50 µL of each peptide dilution was added to each well of polystyrene 96-well U-bottom microplates. The log-phase cultures were adjusted to 0.5 McFarland standard and diluted 1:100 in CAMHB to provide the density of 10^6 CFU/mL. Consequently, 50 µL of diluted bacterial suspension was added to wells containing 50 µL of peptide solution, followed by incubation for 20-24 h at 37°C. […] To evaluate MBC, a volume of 10 μL was taken from each well with no visible growth, inoculated on Mueller-Hinton agar (MHA) plates, and incubated at 37°C. The MBC was defined as the lowest concentration of antimicrobials that killed at least 99.9% of the initial inoculums ([Clinical and Laboratory Standards Institute, 1999]).

[2] = tested on: K. pneumoniae ATCC BAA-1706
Method: as §1

[3] = tested on: K. pneumoniae ATCC 70063
Method: The effects of various cations and serum on the antimicrobial activity of K11 were investigated against K. pneumoniae ATCC 70063 and K. pneumoniae ATCC BAA-1706 by the MIC assay, as described above. […] Subsequently, serially 2-fold diluted K11 solutions were prepared in CAMHB, and aliquots of each peptide solution were added to a 96-well plate. An equal volume of bacterial suspension was added, and the mixtures were incubated at 37°C for 20-24 h ([Ko et al., 2019]). For serum stability, 2 mg/mL of K11 was prepared in solution with 25% and 50% FBS and incubated for 1 h at 37°C, then heat […] for 30 min at 60°C. A series of 2-fold dilutions of K11 were performed in CAMHB and transferred to a 96-well plate. The diluted bacterial suspension was added to the well, and mixtures were incubated for 20-24 h at 37°C ([Oliva et al., 2018]). The antimicrobial activity was determined by measuring the MICs.

[4] = tested on: K. pneumoniae ATCC 70063; remark: listed apart in the source
Method: (§2) The effects of various cations and serum on the antimicrobial activity of K11 were investigated against K. pneumoniae ATCC 70063 and K. pneumoniae ATCC BAA-1706 by the MIC assay, as described above. For salt stability, 2 mg/mL of K11 was dissolved in solutions containing different salts at their physiological concentrations; NaCl (100, 150, and 200 mM), MgCl2 (0.5, 1 and 2 mM), and FeCl3 (1, 4, and 8 mM), then incubated for 1 h at 37°C. Subsequently, serially 2-fold diluted K11 solutions were prepared in CAMHB, and aliquots of each peptide solution were added to a 96-well plate. An equal volume of bacterial suspension was added, and the mixtures were incubated at 37°C for 20-24 h ([Ko et al., 2019]). For serum stability, 2 mg/mL of K11 was prepared in solution with 25% and 50% FBS and incubated for 1 h at 37°C, then heat […] for 30 min at 60°C. A series of 2-fold dilutions of K11 were performed in CAMHB and transferred to a 96-well plate. The diluted bacterial suspension was added to the well, and mixtures were incubated for 20-24 h at 37°C ([Oliva et al., 2018]). The antimicrobial activity was determined by measuring the MICs.

[5] = tested on: K. pneumoniae ATCC BAA-1706; remark: listed apart in the source
Method: as §2

[6] = tested on: K. pneumoniae reference strains; assay: MIC determination, broth microdilution; type: cell-based, Klebsiella pneumoniae; settings: K. pneumoniae reference strains (ATCC BAA-1706, ATCC 70063)
[7] = tested on: K. pneumoniae ATCC BAA-1706; remark: listed apart in the source
Method: The effects of various cations and serum on the antimicrobial activity of K11 were investigated against K. pneumoniae ATCC 70063 and K. pneumoniae ATCC BAA-1706 by the MIC assay, as described above. For salt stability, 2 mg/mL of K11 was dissolved in solutions containing different salts at their physiological concentrations; NaCl (100, 150, and 200 mM), MgCl2 (0.5, 1 and 2 mM), and FeCl3 (1, 4, and 8 mM), then incubated for 1 h at 37°C. Subsequently, serially 2-fold diluted K11 solutions were prepared in CAMHB, and aliquots of each peptide solution were added to a 96-well plate. An equal volume of bacterial suspension was added, and the mixtures were incubated at 37°C for 20-24 h ([Ko et al., 2019]). […] The antimicrobial activity was determined by measuring the MICs.

[8] = ref Jin-Jiang et al., 2012; cited from earlier work
Excerpt: K11 is a synthetic peptide derived from natural AMPs (cecropin A1, melittin, and maganin 2), composed of 20 amino acids ([…]-NH2). […] Moreover, K11 has also been successfully used in vivo as a topic hydrogel solution against Acinetobacter baumannii-infected wounds ([Rishi et al., 2018]).

[9] = MDR/XDR K. pneumoniae clinical isolates
[10] = K11 2 mg/mL in FeCl3 1 µM, 1 h at 37°C, then MIC in CAMHB
[11] = K11 2 mg/mL in FeCl3 4 µM, 1 h at 37°C, then MIC in CAMHB
[12] = K11 2 mg/mL in FeCl3 8 µM, 1 h at 37°C, then MIC in CAMHB
[13] = K11 2 mg/mL in MgCl2 0.5 mM, 1 h at 37°C, then MIC in CAMHB
[14] = K11 2 mg/mL in MgCl2 1 mM, 1 h at 37°C, then MIC in CAMHB
[15] = K11 2 mg/mL in MgCl2 2 mM, 1 h at 37°C, then MIC in CAMHB
[16] = K11 2 mg/mL in NaCl 100 mM, 1 h at 37°C, then MIC in CAMHB
[17] = K11 2 mg/mL in NaCl 200 mM, 1 h at 37°C, then MIC in CAMHB
[18] = K11 2 mg/mL in 25% FBS, 1 h at 37°C, then 30 min at 60°C, then MIC in CAMHB
[19] = K11 2 mg/mL in 50% FBS, 1 h at 37°C, then 30 min at 60°C, then MIC in CAMHB

SMILES: CC[C@H](C)[C@H](NC(=O)[C@H](Cc1ccccc1)NC(=O)[C@H](CO)NC(=O)[C@H](CCCCN)NC(=O)[C@H](Cc1c[nH]c2ccccc12)NC(=O)[C@@H](N)CCCCN)C(=O)N[C@@H](CCCCN)C(=O)N[C@@H](CCCCN)C(=O)N[C@@H](CC(C)C)C(=O)N[C@H](C(=O)N[C@@H](CCCCN)C(=O)N[C@@H](CCCCN)C(=O)N[C@@H](Cc1ccccc1)C(=O)N[C@@H](CC(C)C)C(=O)N[C@@H](Cc1c[nH]cn1)C(=O)N[C@@H](CO)C(=O)N[C@@H](C)C(=O)N[C@@H](CCCCN)C(=O)N[C@@H](CCCCN)C(=O)N[C@@H](Cc1ccccc1)C(N)=O)[C@@H](C)O [K11] (H-KWKSFIKKLTKKFLHSAKKF-NH2)
- MIC ([1]; KP-01): 8 µg/mL (≈ 3.21 µM)
- MBC ([1]; KP-01): 8 µg/mL (≈ 3.21 µM)
- MIC ([1]; KP-02): 64 µg/mL (≈ 25.7 µM)
- MBC ([1]; KP-02): 64 µg/mL (≈ 25.7 µM)
- MIC ([1]; KP-03): 16 µg/mL (≈ 6.42 µM)
- MBC ([1]; KP-03): 16 µg/mL (≈ 6.42 µM)
- MIC ([1]; KP-04): 64 µg/mL (≈ 25.7 µM)
- MBC ([1]; KP-04): 128 µg/mL (≈ 51.3 µM)
- MIC ([1]; KP-05): 8 µg/mL (≈ 3.21 µM)
- MBC ([1]; KP-05): 8 µg/mL (≈ 3.21 µM)
- MIC ([1]; KP-06): 64 µg/mL (≈ 25.7 µM)
- MBC ([1]; KP-06): 128 µg/mL (≈ 51.3 µM)
- MIC ([1]; KP-07): 16 µg/mL (≈ 6.42 µM)
- MBC ([1]; KP-07): 16 µg/mL (≈ 6.42 µM)
- MIC ([1]; KP-08): 64 µg/mL (≈ 25.7 µM)
- MBC ([1]; KP-08): 128 µg/mL (≈ 51.3 µM)
- MIC ([1]; KP-09): 64 µg/mL (≈ 25.7 µM)
- MBC ([1]; KP-09): 128 µg/mL (≈ 51.3 µM)
- MIC ([1]; KP-10): 64 µg/mL (≈ 25.7 µM)
- MBC ([1]; KP-10): 128 µg/mL (≈ 51.3 µM)
- MIC ([1]; KP-11): 64 µg/mL (≈ 25.7 µM)
- MBC ([1]; KP-11): 64 µg/mL (≈ 25.7 µM)
- MIC ([1]; KP-12): 64 µg/mL (≈ 25.7 µM)
- MBC ([1]; KP-12): 64 µg/mL (≈ 25.7 µM)
- MIC ([1]; KP-13): 32 µg/mL (≈ 12.8 µM)
- MBC ([1]; KP-13): 32 µg/mL (≈ 12.8 µM)
- MIC ([1]; KP-14): 256 µg/mL (≈ 103 µM)
- MBC ([1]; KP-14): 256 µg/mL (≈ 103 µM)
- MIC ([1]; KP-15): 512 µg/mL (≈ 205 µM)
- MBC ([1]; KP-15): 512 µg/mL (≈ 205 µM)
- MIC50 [1, 9]: 64 µg/mL (≈ 25.7 µM)
- MIC90 [1, 9]: 256 µg/mL (≈ 103 µM)
- MIC ([2]; broth microdilution in CAMHB, 20-24 h at 37°C): 2 µg/mL (≈ 0.802 µM)
- MBC ([2]; wells with no visible growth plated on MHA, 37°C, kills at least 99.9% of inoculum): 2 µg/mL (≈ 0.802 µM)
- Antimicrobial activity MIC ([3]; Control, salt concentration 0): 4 µg/mL
- Antimicrobial activity MIC [3, 10]: 4 µg/mL
- Antimicrobial activity MIC [3, 11]: 4 µg/mL
- Antimicrobial activity MIC [3, 12]: 4 µg/mL
- Antimicrobial activity MIC [3, 13]: 4 µg/mL
- Antimicrobial activity MIC [3, 14]: 4 µg/mL
- Antimicrobial activity MIC [3, 15]: 8 µg/mL
- Antimicrobial activity MIC [3, 16]: 4 µg/mL
- Antimicrobial activity MIC ([3]; K11 2 mg/mL in NaCl 150 mM, 1 h at 37°C, then MIC in CAMHB): 4 µg/mL
- Antimicrobial activity MIC [3, 17]: 4 µg/mL
- Antimicrobial activity MIC ([4]; 0% FBS (control)): 4 µg/mL
- Antimicrobial activity MIC [4, 18]: 4 µg/mL
- Antimicrobial activity MIC [4, 19]: 4 µg/mL
- Antimicrobial activity MIC ([5]; 0% FBS (control)): 2 µg/mL
- Antimicrobial activity MIC [5, 18]: 2 µg/mL
- Antimicrobial activity MIC [5, 19]: 2 µg/mL
- MIC, range over strains [6]: 2 to 4 µg/mL
- Antimicrobial activity MIC ([7]; Control, salt concentration 0): 2 µg/mL
- Antimicrobial activity MIC [7, 10]: 2 µg/mL
- Antimicrobial activity MIC [7, 11]: 2 µg/mL
- Antimicrobial activity MIC [7, 12]: 2 µg/mL
- Antimicrobial activity MIC [7, 13]: 2 µg/mL
- Antimicrobial activity MIC [7, 14]: 2 µg/mL
- Antimicrobial activity MIC [7, 15]: 2 µg/mL
- Antimicrobial activity MIC [7, 16]: 2 µg/mL
- Antimicrobial activity MIC ([7]; K11 2 mg/mL in NaCl 150mM, 1 h at 37°C, then MIC in CAMHB): 4 µg/mL
- Antimicrobial activity MIC [7, 17]: 4 µg/mL
- hemolytic activity [8]: no hemolytic activity
